Measured values published in ChEMBL document CHEMBL4420074, “Small molecule inhibitors of Dusp6 and uses therefor” (2015).
Active and inactive are the calls of the source. No cut-off for these calls is given here.

How the values were obtained:
[1] = target: T1, Dual specificity protein phosphatase (Danio rerio) (UniProt Q7T2L8); experiment: Inhibition of Dusp6 in (Tg(Dusp6:d2EGFP)pt6) transgenic Zebrafish assessed as activation of FGF signaling at 20 uM by d2EGFP fluorescence based assay
T1 sequence (whole entry): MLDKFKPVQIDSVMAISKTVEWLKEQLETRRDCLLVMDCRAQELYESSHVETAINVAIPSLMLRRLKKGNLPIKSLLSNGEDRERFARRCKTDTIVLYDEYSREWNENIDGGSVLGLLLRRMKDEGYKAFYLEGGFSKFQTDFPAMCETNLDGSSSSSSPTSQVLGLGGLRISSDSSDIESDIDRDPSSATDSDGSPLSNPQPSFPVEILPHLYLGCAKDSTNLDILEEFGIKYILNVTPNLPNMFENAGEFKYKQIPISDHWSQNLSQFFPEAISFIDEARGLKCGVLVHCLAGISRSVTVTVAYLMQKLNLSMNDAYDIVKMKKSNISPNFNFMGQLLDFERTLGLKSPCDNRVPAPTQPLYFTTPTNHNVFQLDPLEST

[2] = target: T2, Dual specificity protein phosphatase 6 (Homo sapiens) (UniProt Q16828); experiment: Inhibition of recombinant His-tagged Dusp6 (unknown origin) assessed as suppression of […] dephosphorylation at 100 uM incubated for 60 mins by immunoblotting
T2 sequence (whole entry): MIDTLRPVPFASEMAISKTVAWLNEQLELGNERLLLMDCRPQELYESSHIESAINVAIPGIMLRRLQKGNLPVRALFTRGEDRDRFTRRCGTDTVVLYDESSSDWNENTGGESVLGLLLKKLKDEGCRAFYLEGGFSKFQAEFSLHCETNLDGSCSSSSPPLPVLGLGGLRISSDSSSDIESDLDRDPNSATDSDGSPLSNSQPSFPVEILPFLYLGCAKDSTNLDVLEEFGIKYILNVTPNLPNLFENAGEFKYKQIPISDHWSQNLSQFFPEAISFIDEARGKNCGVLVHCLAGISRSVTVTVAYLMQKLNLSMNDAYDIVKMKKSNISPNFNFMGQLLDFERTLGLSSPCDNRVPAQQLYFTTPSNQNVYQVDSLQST

[3] = target: T2, Dual specificity protein phosphatase 6 (Homo sapiens); experiment: Inhibition of Myc-tagged human Dusp6 expressed in TPA-stimulated human HeLa cells assessed as suppression of Dusp6-induced reduction in ERK phosphorylation at 0.5 to 2 uM by immunostaining based assay; type: cell-based
[4] = target: T3, Dual specificity protein phosphatase 1 (Homo sapiens) (UniProt P28562); experiment: Inhibition of Myc-tagged human Dusp1 expressed in TPA-stimulated human HeLa cells assessed as suppression of […] reduction in ERK phosphorylation at 0.5 to 2 uM by immunostaining based assay; type: cell-based
T3 sequence (whole entry): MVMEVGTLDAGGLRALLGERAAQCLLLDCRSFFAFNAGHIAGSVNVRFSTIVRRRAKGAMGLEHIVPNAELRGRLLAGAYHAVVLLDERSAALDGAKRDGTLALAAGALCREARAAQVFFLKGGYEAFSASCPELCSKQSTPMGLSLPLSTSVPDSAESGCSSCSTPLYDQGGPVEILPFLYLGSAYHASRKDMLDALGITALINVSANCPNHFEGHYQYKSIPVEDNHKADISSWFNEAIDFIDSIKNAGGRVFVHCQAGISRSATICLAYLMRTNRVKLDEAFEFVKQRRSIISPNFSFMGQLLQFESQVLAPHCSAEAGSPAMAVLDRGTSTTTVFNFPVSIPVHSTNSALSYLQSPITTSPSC

[5] = target: T1, Dual specificity protein phosphatase (Danio rerio); experiment: Inhibition of Dusp6 in (Tg(Dusp6:d2EGFP)pt6) transgenic Zebrafish assessed as activation of FGF signaling at 20 uM treated at 24 hours post fertilization and measured after 6 hrs post dose by d2EGFP fluorescence based assay relative to BCI; parameters: scale not given: the % may be the effect or the level left
[6] = Toxicity in (Tg(Dusp6:d2EGFP)pt6) transgenic Zebrafish assessed as induction of tail necrosis at >10 uM incubated for 24 hrs; parameters: species or system Danio rerio; conditions: in vivo
[7] = Toxicity in (Tg(Dusp6:d2EGFP)pt6) transgenic Zebrafish assessed as induction of embryo death at >10 uM incubated for 24 hrs; parameters: species or system Danio rerio; conditions: in vivo
[8] = Toxicity in (Tg(Dusp6:d2EGFP)pt6) transgenic Zebrafish assessed as induction of embryo death at 20 uM incubated for 24 hrs; parameters: species or system Danio rerio; conditions: in vivo, other: incubation
[9] = Toxicity in (Tg(Dusp6:d2EGFP)pt6) transgenic Zebrafish assessed as induction of embryo death at 10 uM incubated for 24 hrs; parameters: species or system Danio rerio; conditions: in vivo, other: incubation
[10] = Toxicity in (Tg(Dusp6:d2EGFP)pt6) transgenic Zebrafish assessed as induction of embryo death at 40 uM incubated for 24 hrs; parameters: species or system Danio rerio; conditions: in vivo
[11] = target: T1, Dual specificity protein phosphatase (Danio rerio); experiment: Inhibition of Dusp6 in (Tg(Dusp6:d2EGFP)pt6) transgenic Zebrafish assessed as activation of FGF signaling by measuring increase in spry4 expression at 10 to 20 uM by semi-quantitative RT-PCR analysis
Danio rerio [12] = organism: Danio rerio; experiment: Induction of cardiac tissue expansion in Zebrafish embryos exposed to compound at larval stage followed by compound washout in next day and further incubation until embryos reached 56 hpf; type: functional, organism-based
Danio rerio [13] = organism: Danio rerio; experiment: Induction of cardiac tissue expansion in ventricular tissue of Zebrafish embryos exposed to compound at larval stage followed by compound washout in next day and further incubation until embryos reached 56 hpf; type: functional, organism-based
Danio rerio [14] = organism: Danio rerio; experiment: Inhibition of exogenous Zebrafish XFD-mediated suppression of sef expression in Zebrafish 1-cell stage embryos at 5 uM; type: functional, organism-based
Danio rerio [15] = organism: Danio rerio; experiment: Induction of cardiac tissue expansion in Zebrafish embryos exposed to compound at post 1 and 8-somite stages followed by compound washout in next day and further incubation until embryos reached 56 hpf; type: functional, organism-based
Danio rerio [16] = organism: Danio rerio; experiment: Inhibition of exogenous Zebrafish spry4-mediated suppression of sef expression in Zebrafish 1-cell stage embryos at 5 uM; type: functional, organism-based
[17] = target: T1, Dual specificity protein phosphatase (Danio rerio); experiment: Inhibition of Dusp6 in (Tg(Dusp6:d2EGFP);ace mutant) transgenic Zebrafish assessed as activation of FGF signaling in mid-hindbrain boundary by d2EGFP fluorescence based assay
[18] = target: T2, Dual specificity protein phosphatase 6 (Homo sapiens); experiment: Inhibition of Myc-tagged human Dusp6 expressed in TPA-stimulated human HeLa cells assessed as suppression of Dusp6-induced reduction in ERK phosphorylation by immunostaining based assay; type: cell-based
[19] = target: T1, Dual specificity protein phosphatase (Danio rerio); experiment: Inhibition of Dusp6 in (Tg(Dusp6:d2EGFP)pt6) transgenic Zebrafish assessed as activation of FGF signaling by measuring increase in ntl expression within notochord and tail bud at 6-somite stage at 10 to 20 uM dosed prior to gastrulation by whole mount in situ hybridization assay; type: organism-based
[20] = target: T1, Dual specificity protein phosphatase (Danio rerio); experiment: Inhibition of Dusp6 in (Tg(Dusp6:d2EGFP)pt6) transgenic Zebrafish assessed as activation of FGF signaling by measuring increase in dusp6 expression at 10 to 20 uM dosed 1 to 10-somite stage by whole mount in situ hybridization assay; type: organism-based
[21] = target: T4, Dual specificity protein phosphatase (Danio rerio) (UniProt Q6PBT4); experiment: Inhibition of Dusp5 in Zebrafish 1-cell stage embryos assessed as rescue of Zebrafish dusp5-mediated suppression of sef expression at 5 uM
T4 sequence (whole entry): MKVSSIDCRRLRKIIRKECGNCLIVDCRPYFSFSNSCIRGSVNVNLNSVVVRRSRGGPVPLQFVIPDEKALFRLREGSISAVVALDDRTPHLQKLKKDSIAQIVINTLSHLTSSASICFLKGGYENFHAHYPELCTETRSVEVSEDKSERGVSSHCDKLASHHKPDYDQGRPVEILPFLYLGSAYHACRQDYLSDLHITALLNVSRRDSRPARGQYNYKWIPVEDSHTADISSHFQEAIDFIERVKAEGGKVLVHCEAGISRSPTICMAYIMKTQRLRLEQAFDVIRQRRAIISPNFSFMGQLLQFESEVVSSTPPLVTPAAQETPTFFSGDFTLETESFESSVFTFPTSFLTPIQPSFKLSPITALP

[22] = target: T2, Dual specificity protein phosphatase 6 (Homo sapiens); experiment: Inhibition of recombinant His-tagged Dusp6 (unknown origin) assessed as reduction in basal Dusp6 activity at 100 uM using OMFP substrate by fluorescence based assay
[23] = target: T1, Dual specificity protein phosphatase (Danio rerio); experiment: Inhibition of Dusp6 in (Tg(Dusp6:d2EGFP)pt6) transgenic Zebrafish assessed as activation of FGF signaling after 2 hrs by d2EGFP fluorescence based assay
Danio rerio [24] = organism: Danio rerio; experiment: (§1) Induction of cardiac tissue expansion in Zebrafish embryos assessed as induction of heart enlargement by measuring increase in cmlc2 expression exposed to compound at larval stage followed by compound washout in next day and further incubation until embryos reached 56 hpf by in situ hybridization assay; type: functional, organism-based
[25] = target: T1, Dual specificity protein phosphatase (Danio rerio); experiment: Inhibition of Dusp6 in Zebrafish 1-cell stage embryos assessed as rescue of Zebrafish dusp6-mediated suppression of sef expression at 5 uM
[26] = target: T1, Dual specificity protein phosphatase (Danio rerio); experiment: Inhibition of Dusp6 in (Tg(Dusp6:d2EGFP)pt6) transgenic Zebrafish assessed as activation of FGF signaling by measuring expansion of rhombomere-4 and tail bud at 10 to 20 uM dosed 1 to 10-somite stage by whole mount in situ hybridization assay; type: organism-based
[27] = target: T1, Dual specificity protein phosphatase (Danio rerio); experiment: Inhibition of Dusp6 in (Tg(Dusp6:d2EGFP)pt6) transgenic Zebrafish assessed as activation of FGF signaling by measuring increase in sef expression at 10 to 20 uM by semi-quantitative RT-PCR analysis
[28] = target: T1, Dual specificity protein phosphatase (Danio rerio); experiment: Inhibition of Dusp6 in (Tg(Dusp6:d2EGFP)pt6) transgenic Zebrafish assessed as activation of FGF signaling by measuring increase in krox20 expression at 10 to 20 uM dosed 1 to 10-somite stage by whole mount in situ hybridization assay; type: organism-based
[29] = target: T1, Dual specificity protein phosphatase (Danio rerio); experiment: Inhibition of Dusp6 in (Tg(Dusp6:d2EGFP)pt6) transgenic Zebrafish assessed as activation of FGF signaling at 5 uM by d2EGFP fluorescence based assay
[30] = target: T1, Dual specificity protein phosphatase (Danio rerio); experiment: Inhibition of Dusp6 in Zebrafish assessed as assessed as activation of FGF signaling by measuring reduction in ETSRP expression relative to control
[31] = target: T1, Dual specificity protein phosphatase (Danio rerio); experiment: Inhibition of Dusp6 in (Tg(Dusp6:d2EGFP)pt6) transgenic Zebrafish assessed as activation of FGF signaling by measuring increase in eng3 expression at 10 to 20 uM dosed 1 to 10-somite stage by whole mount in situ hybridization assay; type: organism-based
Danio rerio [32] = organism: Danio rerio; experiment: Induction of cardiac tissue expansion in Zebrafish embryos exposed to compound at 1 and 8-somite stages followed by compound washout in next day and further incubation until embryos reached 56 hpf; type: functional, organism-based
Danio rerio [33] = organism: Danio rerio; experiment: as §1, with “VHMC” for “cmlc2”; type: functional, organism-based
[34] = target: T1, Dual specificity protein phosphatase (Danio rerio); experiment: Inhibition of Dusp6 in (Tg(Dusp6:d2EGFP)pt6) transgenic Zebrafish assessed as activation of FGF signaling by measuring expansion of prospective mid-hindbrain boundary at 10 to 20 uM dosed 1 to 10-somite stage by whole mount in situ hybridization assay; type: organism-based
[35] = target: Dual specificity protein phosphatase 6 (Homo sapiens) (UniProt Q16828); experiment: Inhibition of recombinant His-tagged Dusp6 (unknown origin) assessed as suppression of […] dephosphorylation at 1 mM incubated for 60 mins by immunoblotting

O=C1CC(NC2CCCCC2)c2ccccc21 (stereo not drawn)
inhibition [1]: inactive | inhibition [2]: inactive | inhibition [3]: inactive | inhibition [4]: inactive

O=C1/C(=C/c2ccccc2)C(NC2CCCCC2)c2ccccc21 (stereo in doubt; form 2)
Activity [5]: 82%

O=C1N[C@H]2[C@H](CS[C@H]2CCCCC(=O)N[C@H]2CC[C@H](NC3/C(=C\c4ccccc4)C(=O)c4ccccc43)CC2)N1 (stereo partly drawn)
Activity [5]: inactive

O=C1/C(=C/c2ccccc2)Cc2ccccc21
inhibition [1]: inactive

O=C1/C(=C/c2ccccc2)C(NC2CCCCC2)c2ccccc21 (stereo in doubt; form 1) [listing 1 of 2 here]
Activity [6]: Toxic | Activity [7]: Toxic | mortality at 24 h, 20 µM [8]: 100%

O=C1/C(=C/c2ccccc2)C(N2CCOCC2)c2ccccc21 (stereo not drawn)
mortality at 24 h, 10 µM [9]: 100%

N#Cc1ccc2c(c1)C(NC1CCCCC1)/C(=C\c1ccccc1)C2=O (stereo not drawn)
Activity [5]: inactive

O=C1/C(=C/c2ccccc2)C(NC2CCCCC2)c2cc(Br)ccc21 (stereo not drawn)
Activity [10]: Non-Toxic

CC(C)(C)OC(=O)N[C@H]1CC[C@H](NC2/C(=C\c3ccccc3)C(=O)c3ccccc32)CC1 (stereo partly drawn)
Activity [5]: inactive

O=C1/C(=C/c2ccccc2)C(NC2CCCCC2)c2ccccc21 (stereo in doubt; form 1) [listing 2 of 2 here]
inhibition [11]: Active | Activity (Danio rerio [12]): Dose-dependent effect | Activity (Danio rerio [13]): Active | inhibition (Danio rerio [14]): inactive | Activity (Danio rerio [15]): inactive | inhibition (Danio rerio [16]): inactive | inhibition [2]: Active | inhibition [17]: inactive | inhibition [18]: Active | Activity [5]: 100% | inhibition [19]: Active | inhibition [3]: Active | inhibition [20]: Active | inhibition [21]: inactive | inhibition [22]: inactive | inhibition [23]: Dose-dependent effect | Activity (Danio rerio [24]): Active | inhibition [25]: Active | inhibition [26]: Active | inhibition [27]: Active | inhibition [4]: Active | inhibition [28]: Active | inhibition [29]: Active | inhibition [30]: Active | inhibition [31]: Active | Activity (Danio rerio [32]): Active | Activity (Danio rerio [33]): Active | inhibition [34]: Active

SODIUM ORTHOVANAD
inhibition [35]: Active
